# Literature values, collected in US20240368063A1, “PREPARATION METHOD, IN[…], AND SYNTHESIS METHOD FOR A CLASS OF ANTHRACENE-DERIVED TOXINS IN ORGANIC CHEMISTRY” (WUYAN PHARMACEUTICAL TECHNOLOGY (SHANGHAI) CO., LTD, priority 2022, published 2024).
# Experiments:
# human tumor cell lines = conditions: various tumor cell lines, including cells resistant to anthracyclines
# topoisomerase II = conditions: at a concentration of 100 μM
compound,measurement,setting,value
COc1cccc2c1C(=O)c1c(O)c3c(c(O)c1C2=O)C[C@@](O)(C(=O)CO)C[C@@H]3O[C@H]1C[C@H]2[C@H](O[C@@H]3[C@@H](OC)OCCN32)[C@H](C)O1 [PNU-159682],cytotoxicity compared to anthracyclines,human tumor cell lines,three orders of magnitude higher cytotoxicity
same,inhibition of the activity of topoisomerase II,topoisomerase II,weakly inhibits
